Read-outs that look alike come from different tables or passages of the source.
Experiments:
[1] = system: PepX; experiment: Effect of protease inhibitors (PMSF, EDTA) on partially purified PepX activity, Gly-Pro-pNA substrate; type: biochemical, Lacticaseibacillus sp. PRA205; settings: pH 7.0, 37 °C; for effect on PepX enzymatic activity (decrease): inhibitor 1 mmol/L
Experimental: PepX activity in the Lcb. casei PRA205 cytoplasmic extract was assessed in a 96-well plate using glycyl-prolyl-p-nitroanilide (Gly-Pro-pNA) as a specific substrate in the absence and presence of inhibitors. The reaction mixture containing 235 µL of 50 mmol/L Tris-Cl buffer (pH 7) and 5 µL of Gly-Pro-pNA substrate (previously dissolved in the same buffer in a concentration of 6.4 mmol/L) was pre-incubated at 37 °C for 5 min, before the addition of 10 µL of cytoplasmic extract. The same reactions were also carried out in the presence of EDTA and PMSF at increasing concentrations of 0.1, 0.5, 1, 5 and 10 mmol/L. Controls contained a buffer instead of an extract. After incubation for 2 h at 37 °C, reactions were stopped with 50 µL of acetic acid (30%) and the release of pNA was measured spectrophotometrically at 405 nm.
The effect of temperature on the PepX activity was determined as described above, modifying the incubation temperature while maintaining a constant pH of 7. The assay was carried out at four temperatures: 5 °C, 35 °C, 40 °C, and 45 °C. The effect of pH on enzyme activity was evaluated at a constant temperature of 37 °C by modifying the pH of the reaction buffer. Tris-HCL buffer (50 mmol/L) was utilized for reactions at pH 4–9, whereas sodium Tris-HCL buffer (50 mmol/L) was used for the assay at pH 7.0. The effect of protease inhibitors was tested by supplementing the reaction mix with EDTA or PMSF at final concentrations of 0, 1, 2, 5, or 10 mmol/L under standard conditions (pH 7.0, 37 °C).

[2] = system: di-peptidyl-peptidase-IV (DPP-IV); settings: cited from earlier work
Experimental: (§1) Considering the cleavage specificity of PepX and the presence of proline residues in many dairy-derived BPs, the ability of PepX to hydrolyse selected BPs was evaluated. Selected BPs were well-known effective inhibitors of the enzymes ACE and di-peptidyl-peptidase-IV (DPP-IV). […] These two peptides have been identified in several fermented dairy products such as yoghurt and cheeses. The other peptides, ...

[3] = system: ACE; settings: cited from earlier work
Experimental: as §1

[4] = system: blood pressure; settings: rats; cited from earlier work
[5] = system: blood pressure; settings: humans; cited from earlier work

Molecule: O=C(O)CN(CCN(CC(=O)O)CC(=O)O)CC(=O)O [EDTA]
- effect on PepX enzymatic activity (decrease) ([1]; vs control without inhibitor): no effect
- residual PepX activity ([1]; inhibitor 10 mmol/L, vs control without inhibitor): 40%

Molecule: O=S(=O)(F)Cc1ccccc1 [PMSF]
- effect on PepX enzymatic activity (decrease) ([1]; vs control without inhibitor): more than 40%
- effect on PepX enzymatic activity ([1]; inhibitor 5 mmol/L): completely abolished
- effect on PepX enzymatic activity ([1]; inhibitor 10 mmol/L): completely abolished

Molecule: APFPE
- DPP-IV inhibition [2]: potent DPP-IV inhibitors

Molecule: IPPL
- DPP-IV inhibition [2]: potent DPP-IV inhibitors

Molecule: Ile-Pro-Pro [IPP, anti-hypertensive lactotripeptide derived from β-casein]
- ACE inhibition [3]: potent ACE inhibitors
- reduction of blood pressure in vivo [4]: effective in vivo in reducing blood pressure
- reduction of blood pressure in vivo [5]: effective in vivo in reducing blood pressure

Molecule: LPPT
- DPP-IV inhibition [2]: potent DPP-IV inhibitors

Molecule: Val-Pro-Pro [VPP, anti-hypertensive lactotripeptide derived from β-casein]
- ACE inhibition [3]: potent ACE inhibitors
- reduction of blood pressure in vivo [4]: effective in vivo in reducing blood pressure
- reduction of blood pressure in vivo [5]: effective in vivo in reducing blood pressure

From PMC13342036, “Genomic and Proteolytic Profiling of Lacticaseibacillus sp. PRA205: Insights into PepX-Mediated Bioactive Peptide Metabolism” (Probiotics and Antimicrobial Proteins, 2025)
